Measurements from ChEMBL document CHEMBL1149971, “A general approach toward the design of inhibitors of serine proteinases: inhibition of human leukocyte elastase by substituted dihydrouracils” (Bioorg Med Chem Lett, 1992).

Biological target: T1, Neutrophil elastase (Homo sapiens) (UniProt P08246)
T1 sequence (whole entry): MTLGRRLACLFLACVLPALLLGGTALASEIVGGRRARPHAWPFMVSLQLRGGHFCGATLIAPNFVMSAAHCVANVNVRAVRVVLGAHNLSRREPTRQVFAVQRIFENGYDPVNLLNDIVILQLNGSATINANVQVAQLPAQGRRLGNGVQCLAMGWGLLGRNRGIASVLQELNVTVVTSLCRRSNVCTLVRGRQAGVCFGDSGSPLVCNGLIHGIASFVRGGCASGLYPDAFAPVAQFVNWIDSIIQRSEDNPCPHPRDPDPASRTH
Assay: Bimolecular rate constant for the inhibition of human leukocyte elastase

Bimolecular inhibition rate constant (kobs/[I]) | SMILES
480 M⁻¹ s⁻¹ | O=C1NCC(Cc2ccccc2)C(=O)N1OS(=O)(=O)/C=C/c1ccccc1 (centres undefined)
3310 M⁻¹ s⁻¹ | CS(=O)(=O)ON1C(=O)NCC(Cc2ccccc2)C1=O (centres undefined)
800 M⁻¹ s⁻¹ | CS(=O)(=O)ON1C(=O)CC(Cc2ccccc2)NC1=O (centres undefined)
1980 M⁻¹ s⁻¹ | O=C1CC(Cc2ccccc2)NC(=O)N1OS(=O)(=O)/C=C/c1ccccc1 (centres undefined)
